Measured values published in patent publication US20250248957A1, “CELL DIFFERENTIATION” (JOHN HEMMING TRADING LTD, priority 2022, published 2025).

Columns and labels:
Type in all cases: in vivo, human
[1] = system: muscle stem cells (satellite cells); assay: Muscle mass of the subject after citrate administration; settings: total daily citrate dose 3.95 g
Description: (§1) Citrate was administered to the subject in the morning as magnesium and potassium citrate, at lunch time as 10 ml of lemon juice and as calcium and sodium citrate with a total daily citrate dose of 3.95 g. The antioxidant melatonin was administered at night to provide a total nightly dose of between 10 mg and 470 mg.

precancerous spot = assay: Appearance of a precancerous spot on the skin; settings: about 3 g citrate daily for about 3 months; FIG. 7
hair follicle stem cells = assay: Hair growth on the scalp of a subject after citrate administration
Description: as §1, with “Citrate was administered to a subject in the morning as magnesium and potassium citrate and at lunch time as 10 ml of lemon juice to provide a total daily citrate dose of 1.85 g. The antioxidant melatonin was administered at night to provide a total nightly dose of between 10 mg and 470 mg. Citrate was administered daily for four weeks. Citrate” for “Citrate”

[2] = Blood glucose over 24 hour periods by continuous glucose monitor (CGM); settings: 2-40 g citrate daily, 10 months; two non-consecutive days; FIGS. 5(d),(e)
Description: (§2) Citrate was administered to the subject with a total daily citrate dose of between 2 and 40 g for a period of 10 months. Blood glucose levels were measured over separate 24 hour periods using a continuous glucose monitor (CGM) purchased from Dexcom.

[3] = Kidney function markers (Cystatin C, creatinine)
Excerpt: The subject's creatinine levels reached as low as […].

C reactive protein (CRP) = assay: CRP level in the blood of the subject
Description: as §1
CRP levels were reduced from 0.5 mg/L to <0.3 mg/L (0.3 mg/L represents the lower limit of detection) following two months of citrate administration. A subsequent measurement of CRP using equipment with higher sensitivity identified a CRP level of below 0.16 mg/L. The Inventor believes that reduced CRP levels result from increased differentiation of senescent stem cells and reduced production of senescent cells via cell dedifferentiation.

[4] = Concentration of key biomarkers in the blood (HbA1c, folate, glucose)
Description: as §2
The Inventor also measured haemoglobin A1C (HbA1c) which can be used as a diagnostic marker for diabetes. An HbA1c concentration of >6.4% is indicative of diabetes, and a concentration of 5.7% to 6.4% is indicative of prediabetes.

[5] = Facial skin quality (number of blemishes); settings: 2-40 g citrate daily for 6 weeks; before: 25; FIG. 6
Excerpt: Administration of citrate was also found to improve facial skin quality following administration of between 2 and 40 g of citrate daily for a period of 6 weeks.

O=C(O)CC(O)(CC(=O)O)C(=O)O [citrate]
muscle mass [1]: An increase in muscle mass
appearance of a precancerous spot on the skin (precancerous spot): reduce the appearance of a precancerous spot
hair growth with added red or infrared radiation (hair follicle stem cells; topical red or infrared radiation 600-900 nm in addition to citrate): further improved hair growth
growth of new hairs in areas of the scalp which had suffered hair loss (hair follicle stem cells; total daily citrate dose 1.85 g for four weeks, melatonin at night, FIG. 1): growth of new hairs was observed
growth of thicker and darker hairs (hair follicle stem cells; total daily citrate dose 3.95 g, melatonin at night, compared to Example 1, FIGS. 2-4): growth of hairs which were thicker and darker
blood glucose peaks over 24 hour period (CGM) [2]: no significant glucose peaks occurred
creatinine level, lowest reached ([3]; 2-40 g citrate daily, 10 months): 62 mmol/L
Cystatin C level ([3]; following 3 months of citrate, 2-40 g daily, baseline 0.98 mg/L): 0.89 mg/L
CRP level in blood (C reactive protein (CRP); after two months of citrate, baseline 0.5 mg/L, lower limit of detection 0.3 mg/L): < 0.3 mg/L
CRP level, subsequent measurement with higher sensitivity equipment (C reactive protein (CRP); subsequent measurement): below 0.16 mg/L
HbA1c level maintained ([4]; 2-40 g citrate daily): less than 5.7%
HbA1c level, lowest reached ([4]; 2-40 g citrate daily): 4.18%
Glucose concentration in the blood ([4]; following 6 months of citrate administration, reference range 3.3-5.6): 4.53 mmol/L
HbA1C in the blood ([4]; following 6 months of citrate administration, reference range 4-6): 4.18%
number of facial blemishes [5]: 20
